Patent publication US20130137865A1 (TAISHO PHARMACEUTICAL CO., LTD., priority 2010, published 2013)

Target: T1, rat mGlu2 receptor (Rattus norvegicus, UniProt P31421)
T1 construct: expressed in transfected cells; host or cells: CHO cells
Test: [35S]GTPγS binding test (1), membranes of CHO cells stably expressing rat mGlu2
Format: biochemical
Settings: inhibition of glutamic acid (20 μM)-stimulated specific [35S]GTPγS binding
Protocol: (Preparation of Crude Membrane Fraction of CHO Cells Stably Expressing the Rat Metabotropic Glutamate Receptor (mGlu2))
CHO cells stably expressing the rat mGlu2 receptor were cultured in a 10% dialyzed fetal bovine serum-containing Dulbecco's Modified Eagle's Medium [1% proline, 50 units/mL penicillin, 50 μg/mL streptomycin, and 2 mM L-glutamine (to be added when used)] at 37° C. in 5% CO2. Confluent cells were washed with PBS(−) twice, and were then harvested with a cell scraper. Then, the cells were centrifuged at 4° C. at 1000 rpm for 5 minutes to collect. The obtained precipitate was suspended in a 20 mM HEPES buffer (pH 7.4), and then homogenized with a Teflon® homogenizer. The resultant was centrifuged at 4° C. at 48,000×g for 20 minutes to obtain a precipitate again. The obtained precipitate was washed twice by centrifugation, and was then homogenized with the above-mentioned buffer, so as to obtain a crude membrane fraction. The obtained crude membrane fraction was preserved at −80° C.
The frozen membrane fraction as prepared above was thawed when used, and it was then diluted with a binding test buffer (final concentration: 20 mM HEPES, 100 mM NaCl, 10 mM MgCl2, 8.4 μM GDP, 10 μg/mL saponin, and 0.1% BSA). The compound of the Example was added to a membrane fraction (10 μg protein/assay), and the obtained mixture was then incubated at 30° C. for 20 minutes. Thereafter, glutamic acid (final concentration: 20 μM) and [^35S]GTPγS (final concentration: 0.15 nM) were added to the reaction mixture, and then incubated at 30° C. for 1 hour. After completion of the incubation, the reaction mixture was subjected to filtration over a Whatman GF/C filter that had previously been immersed in a 20 mM HEPES buffer (pH 7.4), and the filter was then washed three times with 300 μL of ice-cold 20 mM HEPES buffer (pH 7.4). A scintillation cocktail was added to the resulting filter, and membrane-bound radioactivity was then measured with a liquid scintillation counter.
The amount of [^35S]GTPγS bound in the case of carrying out the above described reaction in the absence of glutamic acid was defined as non-specific binding. The difference between such non-specific bound and the amount of [^35S]GTPγS bound in the presence of glutamic acid was defined as specific binding. Using non-linear analysis, a concentration-inhibition curve was produced. The concentration of the compound of each Example that caused 50% inhibition (IC50 value) of specific binding was determined from each concentration-inhibition curve.

T1 sequence (P31421 19-872): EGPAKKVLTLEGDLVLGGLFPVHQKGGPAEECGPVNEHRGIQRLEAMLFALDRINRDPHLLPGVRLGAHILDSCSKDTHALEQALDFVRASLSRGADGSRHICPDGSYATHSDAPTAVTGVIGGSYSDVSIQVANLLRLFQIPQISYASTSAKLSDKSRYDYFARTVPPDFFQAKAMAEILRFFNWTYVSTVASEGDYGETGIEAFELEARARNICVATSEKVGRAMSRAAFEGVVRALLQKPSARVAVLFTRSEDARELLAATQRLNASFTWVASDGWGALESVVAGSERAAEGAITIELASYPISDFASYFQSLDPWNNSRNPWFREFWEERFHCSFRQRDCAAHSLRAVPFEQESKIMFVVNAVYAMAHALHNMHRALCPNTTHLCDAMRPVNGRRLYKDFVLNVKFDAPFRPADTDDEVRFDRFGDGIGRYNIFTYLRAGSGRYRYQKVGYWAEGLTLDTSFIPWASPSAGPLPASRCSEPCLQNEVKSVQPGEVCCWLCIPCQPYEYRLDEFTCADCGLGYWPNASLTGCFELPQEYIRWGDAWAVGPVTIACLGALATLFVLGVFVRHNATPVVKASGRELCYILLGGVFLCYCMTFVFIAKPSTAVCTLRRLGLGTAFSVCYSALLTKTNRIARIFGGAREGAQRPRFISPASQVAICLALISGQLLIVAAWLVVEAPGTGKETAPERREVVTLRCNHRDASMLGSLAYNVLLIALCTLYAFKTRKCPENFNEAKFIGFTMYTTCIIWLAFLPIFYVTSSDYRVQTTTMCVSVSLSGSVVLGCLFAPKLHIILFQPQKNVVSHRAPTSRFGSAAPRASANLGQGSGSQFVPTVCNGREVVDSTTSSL

Row | SMILES | IC50 [nM]
1 | Cn1ncc(-c2nc(-c3cccc(S(N)(=O)=O)c3)no2)c1CCc1ccc(C(F)(F)F)cn1 [Example 8, 3-[5-(1-Methyl-5-{2-[5-(trifluoromethyl)pyridin-2-yl]ethyl}-1H-pyrazol-4-yl)-1,2,4-oxadiazol-3-yl]benzenesulfonamide] | 98.5
2 | Cn1ncc(-c2nc(-c3cccc(S(N)(=O)=O)c3)no2)c1CNc1ccc(C(F)(F)F)cc1 [Example 9] | 28.5
3 | Cn1ncc(-c2nc(-c3cccc(S(N)(=O)=O)c3)co2)c1CCc1ccc(C(F)(F)F)cc1 [Example 10, 3-[2-(1-Methyl-5-{2-[4-(trifluoromethyl)phenyl]ethyl}-1H-pyrazol-4-yl)-1,3-oxazol-4-yl]benzenesulfonamide] | 10.1
4 | Cn1ncc(-c2nc(-c3ccc(S(=O)(=O)O)cc3)no2)c1CCc1ccc(C(F)(F)F)cc1 [Example 15, 4-[5-(1-Methyl-5-{2-[4-(trifluoromethyl)phenyl]ethyl}-1H-pyrazol-4-yl)-1,2,4-oxadiazol-3-yl]benzenesulfonic acid] | 39.6
5 | Cn1ncc(-c2nc(-c3ccc(S(N)(=O)=O)cc3)no2)c1CCc1ccc(C(F)(F)F)cc1 [Example 19, 4-[5-(1-Methyl-5-{2-[4-(trifluoromethyl)phenyl]ethyl}-1H-pyrazol-4-yl)-1,2,4-oxadiazol-3-yl]benzenesulfonamide] | 8.69
6 | Cn1ncc(-c2nc(-c3cccc(S(N)(=O)=O)c3)no2)c1N1Cc2ccc(C(F)(F)F)cc2C1 [Example 21, 3-(5-{1-Methyl-5-[5-(trifluoromethyl)-1,3-dihydro-2H-isoindol-2-yl]-1H-pyrazol-4-yl}-1,2,4-oxadiazol-3-yl)benzenesulfonamide] | 14.8
7 | Cn1ncc(-c2nc(-c3cccc(S(N)(=O)=O)c3)no2)c1-c1cnn(-c2ccc(Cl)cc2)c1 [Example 25, 3-{5-[1′-(4-Chlorophenyl)-2-methyl-1′H,2H-3,4′-bipyrazol-4-yl]-1,2,4-oxadiazol-3-yl}benzenesulfonamide] | 27.5
8 | CN(C)CCNS(=O)(=O)c1ccc(-c2noc(-c3cnn(C)c3CCc3ccc(C(F)(F)F)cc3)n2)cc1 [Example 31, N-[2-(Dimethylamino)ethyl]-4-[5-(1-methyl-5-{2-[4-(trifluoromethyl)phenyl]ethyl}-1H-pyrazol-4-yl)-1,2,4-oxadiazol-3-yl]benzenesulfonamide] | 22
9 | Cn1ncc(-c2nc(-c3cccc(S(N)(=O)=O)c3)no2)c1COc1ccc(C(F)(F)F)cc1 [Example 37, 3-[5-(1-Methyl-5-{[4-(trifluoromethyl)phenoxy]methyl}-1H-pyrazol-4-yl)-1,2,4-oxadiazol-3-yl]benzenesulfonamide] | 1.29
10 | CCn1ncc(-c2nc(-c3cccc(S(N)(=O)=O)c3)no2)c1CCc1ccc(C(F)(F)F)cc1 [Example 39, 3-[5-(1-Ethyl-5-{2-[4-(trifluoromethyl)phenyl]ethyl}-1H-pyrazol-4-yl)-1,2,4-oxadiazol-3-yl]benzenesulfonamide] | 12
11 | NS(=O)(=O)c1cccc(-c2noc(-c3cnn(CF)c3CCc3ccc(C(F)(F)F)cc3)n2)c1 [Example 41, 3-{5-[1-(Fluoromethyl)-5-{2-[4-(trifluoromethyl)phenyl]ethyl}-1H-pyrazol-4-yl]-1,2,4-oxadiazol-3-yl}benzenesulfonamide] | 9.06
12 | Cc1ccc(OCc2c(-c3nc(-c4cccc(S(N)(=O)=O)c4)no3)cnn2C)cc1 [Example 51, 3-(5-{1-Methyl-5-[(4-methylphenoxy)methyl]-1H-pyrazol-4-yl}-1,2,4-oxadiazol-3-yl)benzenesulfonamide] | 8.16
13 | Cn1ncc(-c2nc(-c3ccc(S(N)(=O)=O)cc3)no2)c1OCc1ccc(C(F)(F)F)cc1 [Example 56, 4-[5-(1-Methyl-5-{[4-(trifluoromethyl)benzyl]oxy}-1H-pyrazol-4-yl)-1,2,4-oxadiazol-3-yl]benzenesulfonamide] | 44.7
14 | COc1cccc(OCc2c(-c3nc(-c4cccc(S(N)(=O)=O)c4)no3)cnn2C)c1 [Example 66, 3-(5-{5-[(3-Methoxyphenoxy)methyl]-1-methyl-1H-pyrazol-4-yl}-1,2,4-oxadiazol-3-yl)benzenesulfonamide] | 4.29
15 | Cn1ncc(-c2nc(-c3cccc(S(N)(=O)=O)c3)no2)c1COc1cccc(F)c1 [Example 68, 3-(5-{5-[(3-Fluorophenoxy)methyl]-1-methyl-1H-pyrazol-4-yl}-1,2,4-oxadiazol-3-yl)benzenesulfonamide] | 6.9
16 | Cn1ncc(-c2nc(-c3cccc(S(N)(=O)=O)c3)no2)c1COc1cccc(OC(F)(F)F)c1 [Example 69, 3-[5-(1-Methyl-5-{[3-(trifluoromethoxy)phenoxy]methyl}-1H-pyrazol-4-yl)-1,2,4-oxadiazol-3-yl]benzenesulfonamide] | 3.56
17 | Cn1ncc(-c2nc(-c3cccc(S(=O)(=O)O)c3)no2)c1COc1ccc(C(F)(F)F)cc1 [Example 134, 3-[5-(1-Methyl-5-{[4-(trifluoromethyl)phenoxy]methyl}-1H-pyrazol-4-yl)-1,2,4-oxadiazol-3-yl]benzenesulfonic acid] | 25.1
